Data taken from PubChem BioAssay AID2060893 (Molecular Pharmacology Branch, DTP, NCI, 2025).
One block for each molecule: values may come before it.

Tested on: K86415-001-R-J1-PDC complex spheroids, viability
Experiment: Anticancer human tumor K86415-001-R-J1-PDC patient-derived lung adenocarcinoma cell line growth inhibition [RAS]
Conditions: for IC50: curve of first compound; for viability, T/C: stronger effect = lower value
Procedure, shortened: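 Tumour cells grown as complex spheroids with HUVEC endothelial cells and mesenchymal stem cells, treated with RAS pathway inhibitor combinations. Each agent spans half-log steps from near clinical Cmax, or 10 microM where Cmax is unknown.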

[1] = second compound 0.0316 µM, first compound 0.0316 µM
[2] = second compound 0.0316 µM, first compound 0.1 µM
[3] = second compound 0.0316 µM, first compound 0.316 µM
[4] = second compound 0.0316 µM, first compound 1 µM
[5] = second compound 0.1 µM, first compound 0.0316 µM
[6] = second compound 0.1 µM, first compound 0.1 µM
[7] = second compound 0.1 µM, first compound 0.316 µM
[8] = second compound 0.1 µM, first compound 1 µM
[9] = second compound 0.316 µM, first compound 0.0316 µM
[10] = second compound 0.316 µM, first compound 0.1 µM
[11] = second compound 0.316 µM, first compound 0.316 µM
[12] = second compound 0.316 µM, first compound 1 µM
[13] = second compound 1 µM, first compound 0.0316 µM
[14] = second compound 1 µM, first compound 0.1 µM
[15] = second compound 1 µM, first compound 0.316 µM
[16] = second compound 1 µM, first compound 1 µM
[17] = second compound 3.16 µM, first compound 0.0316 µM
[18] = second compound 3.16 µM, first compound 0.1 µM
[19] = second compound 3.16 µM, first compound 0.316 µM
[20] = second compound 3.16 µM, first compound 1 µM
[21] = second compound 10 µM, first compound 0.0316 µM
[22] = second compound 10 µM, first compound 0.1 µM
[23] = second compound 10 µM, first compound 0.316 µM
[24] = second compound 10 µM, first compound 1 µM
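Further: spheroids exposed to agents for seven days before readout.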

IC50 (second compound 0.0316 µM): < 3.16 nM | IC50 (second compound 0.1 µM): < 3.16 nM | IC50 (second compound 0.316 µM): < 3.16 nM | IC50 (second compound 1 µM): < 3.16 nM | IC50 (second compound 3.16 µM): < 3.16 nM | IC50 (second compound 10 µM): < 3.16 nM
Compound: C=CC(=O)N1CCN(c2nc(OCC3CCCN3C)nc3c(F)c(-c4nc(N)cc(C)c4C(F)(F)F)c(Cl)cc23)C(C)C1 (centres undefined) + C#Cc1c(F)ccc2cc(O)cc(-c3ncc4c(N5CC6CCC(C5)N6)nc(OCC56CCCN5CC(F)C6)nc4c3F)c12
viability, T/C (second compound 0.0316 µM, first compound 0.00316 µM): 18.2% | viability, T/C (second compound 0.0316 µM, first compound 0.01 µM): 12.5% | viability, T/C [1]: 11.4% | viability, T/C [2]: 11.2% | viability, T/C [3]: 8.99% | viability, T/C [4]: 12% | viability, T/C (second compound 0.1 µM, first compound 0.00316 µM): 19.5% | viability, T/C (second compound 0.1 µM, first compound 0.01 µM): 12.3% | viability, T/C [5]: 11.3% | viability, T/C [6]: 10.5% | viability, T/C [7]: 7.88% | viability, T/C [8]: 11% | viability, T/C (second compound 0.316 µM, first compound 0.00316 µM): 19.9% | viability, T/C (second compound 0.316 µM, first compound 0.01 µM): 11.8% | viability, T/C [9]: 8.76% | viability, T/C [10]: 12.1% | viability, T/C [11]: 9.15% | viability, T/C [12]: 9.63% | viability, T/C (second compound 1 µM, first compound 0.00316 µM): 18.6% | viability, T/C (second compound 1 µM, first compound 0.01 µM): 13.6% | viability, T/C [13]: 13.2% | viability, T/C [14]: 8.99% | viability, T/C [15]: 10.1% | viability, T/C [16]: 10.7% | viability, T/C (second compound 3.16 µM, first compound 0.00316 µM): 19.5% | viability, T/C (second compound 3.16 µM, first compound 0.01 µM): 13.4% | viability, T/C [17]: 9.24% | viability, T/C [18]: 9.62% | viability, T/C [19]: 9.96% | viability, T/C [20]: 9.83% | viability, T/C (second compound 10 µM, first compound 0.00316 µM): 11.9% | viability, T/C (second compound 10 µM, first compound 0.01 µM): 12.9% | viability, T/C [21]: 10.9% | viability, T/C [22]: 9.94% | viability, T/C [23]: 10.1% | viability, T/C [24]: 9.54%

IC50 (second compound 0.0316 µM): > 10000 nM | IC50 (second compound 0.1 µM): > 10000 nM | IC50 (second compound 0.316 µM): > 10000 nM | IC50 (second compound 1 µM): 7330 nM | IC50 (second compound 3.16 µM): 183 nM | IC50 (second compound 10 µM): < 31.6 nM
Compound: C[C@@H](NC(=O)c1ncnc(N)c1Cl)c1ncc(C(=O)Nc2cc(C(F)(F)F)c(Cl)cn2)s1 + C#Cc1c(F)ccc2cc(O)cc(-c3ncc4c(N5CC6CCC(C5)N6)nc(OCC56CCCN5CC(F)C6)nc4c3F)c12
viability, T/C [1]: 107% | viability, T/C [2]: 115% | viability, T/C [3]: 104% | viability, T/C [4]: 81.1% | viability, T/C (second compound 0.0316 µM, first compound 3.16 µM): 61.1% | viability, T/C (second compound 0.0316 µM, first compound 10 µM): 56.5% | viability, T/C [5]: 113% | viability, T/C [6]: 112% | viability, T/C [7]: 93% | viability, T/C [8]: 79.9% | viability, T/C (second compound 0.1 µM, first compound 3.16 µM): 67.5% | viability, T/C (second compound 0.1 µM, first compound 10 µM): 56.8% | viability, T/C [9]: 119% | viability, T/C [10]: 108% | viability, T/C [11]: 88.8% | viability, T/C [12]: 79.8% | viability, T/C (second compound 0.316 µM, first compound 3.16 µM): 65.5% | viability, T/C (second compound 0.316 µM, first compound 10 µM): 53.6% | viability, T/C [13]: 83.9% | viability, T/C [14]: 85.9% | viability, T/C [15]: 69.1% | viability, T/C [16]: 69% | viability, T/C (second compound 1 µM, first compound 3.16 µM): 59.7% | viability, T/C (second compound 1 µM, first compound 10 µM): 46.3% | viability, T/C [17]: 46.9% | viability, T/C [18]: 53.5% | viability, T/C [19]: 52.3% | viability, T/C [20]: 42.6% | viability, T/C (second compound 3.16 µM, first compound 3.16 µM): 38.4% | viability, T/C (second compound 3.16 µM, first compound 10 µM): 30.2% | viability, T/C [21]: 19.5% | viability, T/C [22]: 26% | viability, T/C [23]: 23.1% | viability, T/C [24]: 18.2% | viability, T/C (second compound 10 µM, first compound 3.16 µM): 19.6% | viability, T/C (second compound 10 µM, first compound 10 µM): 15.3%
